ChEMBL document CHEMBL5257097, “An Isomer of Galidesivir That Potently Inhibits Influenza Viruses and Members of the Bunyavirales Order” (ACS Med Chem Lett, 2023)

Tests used:
Influenza A virus [1] = test: Antiviral activity against Influenza A virus H1N1 infected in dog MDCK cells assessed as inhibition of viral replication measured after 15 to 30 mins by visual analysis; type: functional, organism-based
Influenza A virus [2] = test: Antiviral activity against Influenza A virus H7N9 infected in dog MDCK cells assessed as inhibition of viral replication measured after 15 to 30 mins by neutral red dye based analysis; type: functional, organism-based
[3] = (§1) Selectivity index, ratio of CC50 for cytotoxicity against dog MDCK cells infected with Influenza A virus H1N1 assessed as reduction in cell viability by visual analysis to EC50 for antiviral activity against Influenza A virus H1N1 infected in dog MDCK cells assessed as inhibition of viral replication by visual analysis; type: toxicity, cell-based; settings: read-out: Ratio CC50/EC50
[4] = as §1, with “H3N2” for “H1N1”; type: toxicity, cell-based; settings: read-out: Ratio CC50/EC50
[5] = as §1, with “H7N9” for “H1N1”; type: toxicity, cell-based; settings: read-out: Ratio CC50/EC50
[6] = as §1, with “EC90” for “EC50”, “reduction in” for “inhibition of”, “yield” for “replication”; type: toxicity, cell-based
Pichinde virus = test: Antiviral activity against Pichinde virus infected in African green monkey Vero cells assessed as inhibition of viral replication by neutral red dye based analysis; type: functional, organism-based
Rift Valley fever virus = test: Antiviral activity against Rift Valley fever virus infected in African green monkey Vero 76 cells assessed as reduction in viral yield measured for 3 days; type: functional; settings: Vero 76, 72 h, time 3 day
[7] = Cytotoxicity against African green monkey Vero E6 cells infected with JUNV assessed as reduction in cell viability by visual analysis; type: toxicity, cell-based, Vero C1008; settings: chlorocebus sabaeus
[8] = Cytotoxicity against African green monkey Vero cells infected with Pichinde virus assessed as reduction in cell viability by neutral red dye based analysis; type: toxicity; settings: chlorocebus sabaeus
[9] = as §1, with “African green monkey Vero” for “dog MDCK”, “JUNV” for “Influenza A virus H1N1”, “reduction in” for “inhibition of”; type: toxicity, cell-based; settings: read-out: Ratio CC50/EC50
[10] = as §1, with “African green monkey Vero” for “dog MDCK”, “JUNV” for “Influenza A virus H1N1”, “neutral red dye based” for “visual”, “reduction in” for “inhibition of”; type: toxicity; settings: read-out: Ratio CC50/EC50
[11] = as §1, with “African green monkey Vero E6” for “dog MDCK”, “Oropouche” for “Influenza A”, “virus” for “virus H1N1”, “neutral red dye based” for “visual”, “reduction in” for “inhibition of”; type: toxicity, Vero C1008; settings: read-out: Ratio CC50/EC50
[12] = as §1, with “African green monkey Vero” for “dog MDCK”, “Pichinde” for “Influenza A”, “virus” for “virus H1N1”, “neutral red dye based” for “visual”, “reduction in” for “inhibition of”; type: toxicity; settings: read-out: Ratio CC50/EC50
[13] = as §1, with “African green monkey Vero 76” for “dog MDCK”, “Punta Toro” for “Influenza A”, “virus” for “virus H1N1”, “neutral red dye based” for “visual”, “reduction in” for “inhibition of”; type: toxicity; settings: read-out: Ratio CC50/EC50
[14] = Selectivity index, ratio of CC50 for cytotoxicity against African green monkey Vero E6 cells infected with Severe fever with thrombocytopenia syndrome virus assessed as reduction in cell viability to EC90 for antiviral activity against Severe fever with thrombocytopenia syndrome virus infected in African green monkey Vero E6 cells assessed as reduction in viral replication; type: toxicity, cell-based, Vero C1008
[15] = Toxicity in BALB/c mouse infected with A/Ca/04/09 (H1N1) assessed as animal mean day of death at 10 mg/kg, ip administered twice a day for 5 days (reference value: 9.3 +/-1.1 day ); type: organism-based; settings: in vivo, 120 h, time 5 day
dengue virus type 2 = test: Antiviral activity against DENV-2 infected in African green monkey Vero cells assessed as reduction in virus-induced cytopathic effect measured after 15 to 30 mins by neutral red based analysis; type: functional, organism-based
[16] = system: Middle East respiratory syndrome-related coronavirus; test: Antiviral activity against MERS-CoV infected in vervet monkey MA-104 cells assessed as reduction in virus-induced cytopathic effect measured after 15 to 30 mins by visual analysis; type: functional, organism-based; settings: MA104

| SMILES | EC50 (Influenza A virus [1]) | EC50 (Influenza A virus [2]) | selectivity ratio [3] | selectivity ratio [4] | selectivity ratio [5] | selectivity ratio [6] | EC50 (Pichinde virus) | EC90 (Rift Valley fever virus) | CC50 [7] | CC50 [8] | selectivity ratio [9] | selectivity ratio [10] | selectivity ratio [11] | selectivity ratio [12] | selectivity ratio [13] | selectivity ratio [14] | Time [15] | EC50 (dengue virus type 2) | EC50 [16] |
| --- | --- | --- | --- | --- | --- | --- | --- | --- | --- | --- | --- | --- | --- | --- | --- | --- | --- | --- | --- |
| Nc1ncnn2c([C@@H]3N[C@H](CO)[C@@H](O)[C@H]3O)ccc12 | 0.32 µM | 0.39 µM | 41 | 38 | 76 | 240 | 0.3 µM | 0.097 µM | 12 µM | 8.4 µM | 22 | 34 | 75 | 28 | 37 | 49 | 12 days | – | – |
| Nc1ncnc2c([C@@H]3N[C@H](CO)[C@@H](O)[C@H]3O)c[nH]c12 [GALIDESIVIR] | – | – | – | – | – | – | – | – | – | – | – | – | – | – | – | – | – | 15 µM | 32 µM |
